Consider four compounds from ChEMBL document CHEMBL6096721, “Discovery of Selenium-Containing Derivatives as Potent and Orally Bioavailable GLP-1R Agonists” (J Med Chem, 2025).

Series [1] is described as follows: Oral bioavailability in male rat at 5 mg/kg. Type of series: ADME, organism-based. The following applies: in vivo.
Series [2] in a line: Half-life in male rat at 1 mg/kg, iv. Format: ADME, organism-based. The following applies: in vivo.
In series [3] the target is T1, Glucagon-like peptide 1 receptor (Homo sapiens, UniProt P43220). The series is described as follows: Agonist activity at human GLP-1R expressed in HEK293 cells assessed as cAMP accumulation incubated for 30 mins by LANCE ultra cAMP assay. Format: functional, cell-based. A general note: cAMP levels reflect the balance of adenylyl cyclase and phosphodiesterase activity.

The target of series [4] is T1, Glucagon-like peptide 1 receptor. Kind of series: Binding affinity to human GLP-1R assessed as association rate constant by SPR analysis. The following applies: filed as agonist. In general terms: Surface plasmon resonance follows binding to a sensor surface in real time, without labels.
Series [5] in a line: Apparent volume of distribution in male ICR mouse at 2 mg/kg, iv measured after 24 hrs by LC-MS/MS analysis. To be noted: in vivo, read-out: Vz. Type of series: ADME, organism-based.
Series [6] in a line: AUC (0 to t) in male ICR mouse at 10 mg/kg, po measured after 24 hrs by LC-MS/MS analysis. Format: ADME, organism-based. To be noted: in vivo.
Series [7] in a line: Oral bioavailability in male ICR mouse at 10 mg/kg measured after 24 hrs by LC-MS/MS analysis. Format: ADME, organism-based. To be noted: in vivo.
The nature of series [8]: Tmax in male ICR mouse at 10 mg/kg, po measured after 24 hrs by LC-MS/MS analysis. Format: ADME, organism-based. To be noted: in vivo.
The nature of series [9]: AUC (0 to t) in male ICR mouse at 2 mg/kg, iv measured after 24 hrs by LC-MS/MS analysis. Format: ADME, organism-based. The following applies: in vivo.
Series [10] is described as follows: Clearance in male ICR mouse at 2 mg/kg, iv measured after 24 hrs by LC-MS/MS analysis. Format: ADME, organism-based. To be noted: in vivo.
The target of series [11] is T1, Glucagon-like peptide 1 receptor. Kind of series: Partial agonist activity at LgBit-tagged GLP-1R (unknown origin) transfected in HEK293 cells co-transfected with Smbit-tagged beta-arrestin-1 assessed as beta-arrestin recruitment by measuring maximal efficacy incubated for 5 mins by envision microplate reader analysis relative to control. Type of series: functional, cell-based. On the technique in general: Recruitment of arrestin is a read-out of receptor activation apart from second messengers.

Series [12] is described as follows: Half-life in male ICR mouse at 10 mg/kg, po measured after 24 hrs by LC-MS/MS analysis. Format: ADME, organism-based. To be noted: in vivo.
Series [13] in a line: Cmax in male ICR mouse at 2 mg/kg, iv measured after 24 hrs by LC-MS/MS analysis. Type of series: ADME, organism-based. To be noted: in vivo.
A short description of series [14]: MRT (0 to t) in male ICR mouse at 10 mg/kg, po measured after 24 hrs by LC-MS/MS analysis. Type of series: ADME, organism-based. The following applies: in vivo.
The nature of series [15]: Cmax in male ICR mouse at 10 mg/kg, po measured after 24 hrs by LC-MS/MS analysis. The following applies: in vivo. Type of series: ADME, organism-based.
The target in series [16] is T1, Glucagon-like peptide 1 receptor. The series is described as follows: Partial agonist activity at LgBit-tagged GLP-1R (unknown origin) transfected in HEK293 cells co-transfected with Smbit-tagged beta-arrestin-1 assessed as beta-arrestin recruitment incubated for 5 mins by envision microplate reader analysis. Type of series: functional, cell-based.
A short description of series [17]: MRT (0 to t) in male ICR mouse at 2 mg/kg, iv measured after 24 hrs by LC-MS/MS analysis. Format: ADME, organism-based. To be noted: in vivo.
A short description of series [18]: Half-life in male ICR mouse at 2 mg/kg, iv measured after 24 hrs by LC-MS/MS analysis. Format: ADME, organism-based. The following applies: in vivo.

In general, bioavailability refers to the share of a dose that reaches the circulation, judged against a reference dose that is usually intravenous. As usually defined, the half-life is the time in which the quantity being followed falls by half. As a reminder, the EC50 is the concentration giving half of the maximal effect. Broadly, the AUC(0-t) is the area under the concentration-time curve up to a stated or last time point. Read a low AUC(0-t) as low exposure. As a reminder, the Tmax is the time from dosing to the highest level. For orientation: clearance means the volume of plasma or blood freed of the substance per unit of time. The Emax is the maximal effect, on the per cent scale that the assay sets. By Cmax is commonly meant the peak of the concentration-time curve. For orientation: MRT last means the average time that molecules of a dose stay in the body.

T1 sequence (P43220 whole entry): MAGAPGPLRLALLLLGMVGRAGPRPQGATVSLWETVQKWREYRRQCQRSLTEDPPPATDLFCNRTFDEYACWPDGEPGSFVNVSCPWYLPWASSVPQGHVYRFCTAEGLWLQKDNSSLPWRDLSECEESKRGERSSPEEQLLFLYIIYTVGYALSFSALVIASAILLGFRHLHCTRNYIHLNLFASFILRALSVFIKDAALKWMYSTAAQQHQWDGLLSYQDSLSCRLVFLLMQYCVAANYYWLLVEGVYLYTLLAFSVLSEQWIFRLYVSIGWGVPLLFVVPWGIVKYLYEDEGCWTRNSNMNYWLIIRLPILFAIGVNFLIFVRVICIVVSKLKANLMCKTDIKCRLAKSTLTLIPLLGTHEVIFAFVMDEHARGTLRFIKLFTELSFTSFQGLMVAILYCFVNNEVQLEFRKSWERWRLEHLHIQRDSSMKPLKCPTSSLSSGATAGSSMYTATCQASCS

Take `N#Cc1ccc(C[Se]c2cccc(C3CCN(Cc4nc5ccc(C(=O)O)cc5n4C[C@@H]4CCO4)CC3)n2)c(F)c1`: in [1], the bioavailability was 23.4%. The half-life in series [2] is 0.47 h.
Regarding `CC(C)[C@H](NCc1nc2ccc(C(=O)O)cc2n1C[C@@H]1CCO1)C(=O)Nc1cccc([Se]Cc2ccc(C#N)cc2F)n1`, the concentration for a half-maximal effect (EC50) in series [3] is above 200 µM.
Regarding SEMAGLUTIDE, the Ka in series [4] is 7.94 10^5/M.s.
For the compound `COc1cc(C(F)(F)F)ccc1C[Se]c1cccc(N2C=NN(Cc3nc4c(F)cc(C(=O)O)cc4n3C[C@@H]3CCO3)CC2)n1`, the Vd in [5] was 4.27 L/kg. The AUC(0-t) at 24 h is 582 ng·h/mL in series [6] and 3720 ng·h/mL in [9]. This compound yielded a bioavailability in [7] of 3.2%. For the same compound, in [8], the Tmax was 0.42 h. The same compound displayed a clearance in [10] of 9.05 mL/min/kg. The maximum response (Emax) in series [11] was 28%. Further, the half-life is 6.06 h in series [12] and 5.71 h in [18]. In addition, the figures for the Cmax in [13] and in series [15] were 16500 ng/mL and 283 ng/mL, respectively. The MRT last at 24 h in series [14] came out at 3.21 h; in series [17], 0.39 h. In addition, the EC50 in series [16] is above 200 µM.
